# Patent publication US20040242870A1, “Antiviral methods and compounds” (priority 2000, published 2004)
# Like-named read-outs stand apart in the source and are kept apart here.
# Experiments:
# HIV-1 = assay: HeLa CD4 LTR β-gal HIV-1 attachment assay; assay type: cell-based; details: for β-galactosidase production versus background: cells alone+compounds, at all times; for IC50: Human immunodeficiency virus 1, HeLa
# Description: The attachment assay was performed with the HeLa CD4 LTR , β-gal cells available from the AIDS Research and Reference Reagent Repository. […] HeLa CD4 LTR β-gal cells express cell surface CD4 and contain an LTR β-galactosidase reporter construct. Upon infection either the Tat protein incorporated into the virion or new Tat produced following virus integration and transcription trans-activates the LTR β-gal reporter, leading to expression of the β-galactosidase enzyme. HeLa CD4 LTR β-gal cells are routinely cultured with the required selection antibiotics and screened for mycoplasma contamination. Twenty-four h prior to initiation of the assay cells were trypsinized, counted and 1×10^4 cells placed in a 0.2 cm well in media without selection antibiotics. […] A known titer of virus was then added to the wells and the incubation continued for 1 h. At the end of the incubation the wells were washed 6 times with media and the culture continued for 48 h. At 48 h the wells were washed one time with PBS and β-galactosidase enzyme expression determined by chemiluminescence per manufacturers instructions (Tropix Gal-screen™, Tropix, Bedford, Mass.). Compound toxicity was monitored on sister plates using MTS dye reduction.
# PBMCs [1] = assay: PBMC apoptosis by flow cytometry (APO-BRDU kit); assay type: cell-based, Human
# Description: Flow cytometry studies were carried out on PHA/IL-2 induced PBMCs treated for 6 days with the various test compounds. Prior to flow cytometry the PBMCs were washed, counted and 1×10^6 cells resuspended in PBS and stained for CD4 or CD8 surface markers using anti-CD4.PE or CD8.PE (both from PharMingen) for 30 min at 4° C. The PBMC were then washed, fixed (Cytofix) and permeabilized (Cytoperm) followed by staining for apoptosis-related DNA damage. Initial experiments used the BrdU Flow Kit from PharMigen (2354KK). […] For both kits, manufacturers instructions were followed for staining and analysis of the samples. Following the appropriate staining protocol the cells were analyzed using a Becton Dickinson (Bedford, Mass.) FACSSort
# In another series of experiments, the IG compounds and cannabidiol treated cells were assessed for the induction of apoptosis (see Tables 8 and 9). […] As IL-2 is an essential component for maintaining the health of PHA induced PBMCs, a second focus of these studies focuses on the effect of the compounds in the absence of IL-2.
# PBMCs [2] = assay: Cell cycle analysis of PBMCs by flow cytometry; assay type: cell-based, Human
# Description: Flow cytometry studies were carried out on PHA/IL-2 induced PBMCs treated for 6 days with the various test compounds. Prior to flow cytometry the PBMCs were washed, counted and 1×10^6 cells resuspended in PBS and stained for CD4 or CD8 surface markers using anti-CD4.PE or CD8.PE (both from PharMingen) for 30 min at 4° C. The PBMC were then washed, fixed (Cytofix) and permeabilized (Cytoperm) followed by staining for apoptosis-related DNA damage. Initial experiments used the BrdU Flow Kit from PharMigen (2354KK). This kit with the appropriate software should have yielded percent apoptosis along with the number of cells in each phase of the cell cycle. However, we were not successful with this kit and subsequently used the data to look at only the distribution in the cell cycle of the PBMCs following drug treatment. We were successful in detecting apoptosis in PBMCs with the PharMingen APO-BRDU™ kit (6576KK). Using this kit, we were not able to co-stain for CD4 and CD8 due to the fluorescent tags used in the APO-BRDU™ kit. For both kits, manufacturers instructions were followed for staining and analysis of the samples. Following the appropriate staining protocol the cells were analyzed using a Becton Dickinson (Bedford, Mass.) FACSSort
# Experiments were conducted using flow cytometry to assess the effect of the IMG compounds and cannabidiol on induction of apoptosis. Briefly, compound-treated PBMCs were assayed for apoptosis using a BrdU methodology. Table 6 summarizes the effects of the IMG Compounds on cell cycle and cell viability by Trypan Blue Dye exclusion. Table 7 reduces the changes in the cell cycle to a ratio based upon the percent of cells in G2-G1. G2-G1 cells represent transition cells that are in either G2 or G1, that cannot be distinguished based upon DNA content by flow cytometry. […] This ratio cannot be used as a quantitative factor to measure fold-increases or decreases between population, but rather to access trends in the cell cycle.
# [3] = IL-2 supplemented media, 15 μM, HIV +
# [4] = IL-2 supplemented media, 15 μM, HIV −
# [5] = IL-2 supplemented media, 30 μM, HIV +
# [6] = IL-2 supplemented media, 30 μM, HIV −
# [7] = Experiment 1, pretreat 4 h, read-out: IC50
# [8] = Experiment 1, pretreat 24 h, read-out: IC50
# [9] = Experiment 2, pretreat 4 h, read-out: IC50
# [10] = Experiment 2, pretreat 24 h, read-out: IC50
# [11] = IL-2 supplemented media, 50 μM, HIV +
# [12] = IL-2 supplemented media, 50 μM, HIV −
# [13] = IL-2 supplemented media, 100 μM, HIV +
# [14] = IL-2 supplemented media, 100 μM, HIV −
smiles,measurement,setting,value
"C=C(C)[C@@H]1CCC(C)=C[C@H]1c1c(O)cc(CCCCC)cc1O [Cannabidiol, reference compound]",β-galactosidase production versus background,HIV-1,suppressed β-galactosidase production below background
same,% Apoptosis,PBMCs [1]; [3],20.0%
same,Fold Change,PBMCs [1]; [3],1.2
same,% Apoptosis,PBMCs [1]; [4],20.5%
same,Fold Change,PBMCs [1]; [4],1.7
same,% Apoptosis,PBMCs [1]; [5],74%
same,Fold Change,PBMCs [1]; [5],4.6
same,% Apoptosis,PBMCs [1]; [6],22%
same,Fold Change,PBMCs [1]; [6],1.8
same,% 7-AAD positive per cell cycle phase G0-G1,"PBMCs [2]; 1 μM, HIV +",94%
same,% 7-AAD positive per cell cycle phase G2-G1,"PBMCs [2]; 1 μM, HIV +",2%
same,% 7-AAD positive per cell cycle phase G2-M,"PBMCs [2]; 1 μM, HIV +",5.7%
same,% of cells in cell cycle phase,"PBMCs [2]; 1 μM, HIV +",0%
same,% 7-AAD positive per cell cycle phase G0-G1,"PBMCs [2]; 1 μM, HIV −",91%
same,% 7-AAD positive per cell cycle phase G2-G1,"PBMCs [2]; 1 μM, HIV −",2%
same,% 7-AAD positive per cell cycle phase G2-M,"PBMCs [2]; 1 μM, HIV −",9.2%
same,% of cells in cell cycle phase,"PBMCs [2]; 1 μM, HIV −",0%
same,% 7-AAD positive per cell cycle phase G0-G1,"PBMCs [2]; 25 μM, HIV +",96%
same,% 7-AAD positive per cell cycle phase G2-G1,"PBMCs [2]; 25 μM, HIV +",2%
same,% 7-AAD positive per cell cycle phase G2-M,"PBMCs [2]; 25 μM, HIV +",0%
same,% of cells in cell cycle phase,"PBMCs [2]; 25 μM, HIV +",4.2%
same,% 7-AAD positive per cell cycle phase G0-G1,"PBMCs [2]; 25 μM, HIV −",96.4%
same,% 7-AAD positive per cell cycle phase G2-G1,"PBMCs [2]; 25 μM, HIV −",2%
same,% 7-AAD positive per cell cycle phase G2-M,"PBMCs [2]; 25 μM, HIV −",0.05%
same,% of cells in cell cycle phase,"PBMCs [2]; 25 μM, HIV −",3.6%
same,% 7-AAD positive per cell cycle phase G0-G1,"PBMCs [2]; 35 μM, HIV +",98%
same,% 7-AAD positive per cell cycle phase G2-G1,"PBMCs [2]; 35 μM, HIV +",2%
same,% 7-AAD positive per cell cycle phase G2-M,"PBMCs [2]; 35 μM, HIV +",0%
same,% of cells in cell cycle phase,"PBMCs [2]; 35 μM, HIV +",2.6%
same,% 7-AAD positive per cell cycle phase G0-G1,"PBMCs [2]; 35 μM, HIV −",95.5%
same,% 7-AAD positive per cell cycle phase G2-G1,"PBMCs [2]; 35 μM, HIV −",2%
same,% 7-AAD positive per cell cycle phase G2-M,"PBMCs [2]; 35 μM, HIV −",0%
same,% of cells in cell cycle phase,"PBMCs [2]; 35 μM, HIV −",4.5%
"COc1cc(C(C)(C)CCCC(C)C)cc(OC)c1OC [IG-07, 1-(1,1,5Trimethylhexyl)-3,4,5-trimethoxybenzene]",IC50,"HIV-1; Experiment 1, pretreat 0 h, read-out: IC50",> 50 µM
same,IC50,HIV-1; [7],> 50 µM
same,IC50,HIV-1; [8],> 50 µM
same,IC50,"HIV-1; Experiment 2, pretreat 0 h, read-out: IC50",16 µM
same,IC50,HIV-1; [9],> 50 µM
same,IC50,HIV-1; [10],> 50 µM
same,transient suppression of virus replication,"HIV-1; at lower concentrations of compounds, two independent experiments",observed consistently
same,β-galactosidase production versus background,HIV-1,suppressed β-galactosidase production below background
same,% Apoptosis,"PBMCs [1]; IL-2 deficient media, 50 μM, HIV +",32.6%
same,% Apoptosis,"PBMCs [1]; IL-2 deficient media, 50 μM, HIV −",27%
same,% Apoptosis,"PBMCs [1]; IL-2 deficient media, 100 μM, HIV +",64%
same,% Apoptosis,"PBMCs [1]; IL-2 deficient media, 100 μM, HIV −",54%
same,% Apoptosis,PBMCs [1]; [11],16%
same,Fold Change,PBMCs [1]; [11],1
same,% Apoptosis,PBMCs [1]; [12],14.4%
same,Fold Change,PBMCs [1]; [12],1.2
same,% Apoptosis,PBMCs [1]; [13],22.5%
same,Fold Change,PBMCs [1]; [13],1.4
same,% Apoptosis,PBMCs [1]; [14],22.8%
same,Fold Change,PBMCs [1]; [14],2
same,% 7-AAD positive per cell cycle phase G0-G1,"PBMCs [2]; 5 μM, HIV +",89%
same,% 7-AAD positive per cell cycle phase G2-G1,"PBMCs [2]; 5 μM, HIV +",2%
same,% 7-AAD positive per cell cycle phase G2-M,"PBMCs [2]; 5 μM, HIV +",10%
same,% of cells in cell cycle phase,"PBMCs [2]; 5 μM, HIV +",0%
same,% 7-AAD positive per cell cycle phase G0-G1,"PBMCs [2]; 5 μM, HIV −",89%
same,% 7-AAD positive per cell cycle phase G2-G1,"PBMCs [2]; 5 μM, HIV −",2%
same,% 7-AAD positive per cell cycle phase G2-M,"PBMCs [2]; 5 μM, HIV −",6.9%
same,% of cells in cell cycle phase,"PBMCs [2]; 5 μM, HIV −",0%
same,% 7-AAD positive per cell cycle phase G0-G1,"PBMCs [2]; 100 μM, HIV +",95%
same,% 7-AAD positive per cell cycle phase G2-G1,"PBMCs [2]; 100 μM, HIV +",2%
same,% 7-AAD positive per cell cycle phase G2-M,"PBMCs [2]; 100 μM, HIV +",3.1%
same,% of cells in cell cycle phase,"PBMCs [2]; 100 μM, HIV +",1.7%
same,% 7-AAD positive per cell cycle phase G0-G1,"PBMCs [2]; 100 μM, HIV −",94%
same,% 7-AAD positive per cell cycle phase G2-G1,"PBMCs [2]; 100 μM, HIV −",2%
same,% 7-AAD positive per cell cycle phase G2-M,"PBMCs [2]; 100 μM, HIV −",0.2%
same,% of cells in cell cycle phase,"PBMCs [2]; 100 μM, HIV −",6%
"CC(C)=CCCC1(C)CCc2c(O)cc(C(C)(C)CCCC(C)C)cc2O1 (centres unmarked) [IG-08, 3,4-Dihydro-2-methyl-2-(4-methyl-3-pentenyl)-7-(1,1,5-trimethylhexyl)-2H-1-benzopyran-5-ol]",IC50,"HIV-1; Experiment 1, pretreat 0 h",16 µM
same,IC50,HIV-1; [7],10.8 µM
same,IC50,HIV-1; [8],7.4 µM
same,IC50,"HIV-1; Experiment 2, pretreat 0 h",0.9 µM
same,IC50,HIV-1; [9],11 µM
same,IC50,HIV-1; [10],2.6 µM
same,β-galactosidase production versus background,HIV-1,suppressed β-galactosidase production below background
same,Comment: suppression of β-galactosidase activity,HIV-1; pretreat 0 h,Suppression of μ-galactosidase
same,Comment: suppression of β-galactosidase activity,HIV-1; pretreat 4 h,Suppression of μ-galactosidase
same,Comment: suppression of β-galactosidase activity,HIV-1; pretreat 24 h,Suppression of μ-galactosidase
same,% Apoptosis,"PBMCs [1]; IL-2 deficient media, 15 μM, HIV +",29%
same,% Apoptosis,"PBMCs [1]; IL-2 deficient media, 15 μM, HIV −",18.4%
same,% Apoptosis,"PBMCs [1]; IL-2 deficient media, 30 μM, HIV +",13.8%
same,% Apoptosis,"PBMCs [1]; IL-2 deficient media, 30 μM, HIV −",11.7%
same,% Apoptosis,PBMCs [1]; [3],19.3%
same,Fold Change,PBMCs [1]; [3],1.2
same,% Apoptosis,PBMCs [1]; [4],17.3%
same,Fold Change,PBMCs [1]; [4],1.2
same,% Apoptosis,PBMCs [1]; [5],32.1%
same,Fold Change,PBMCs [1]; [5],2
same,% Apoptosis,PBMCs [1]; [6],27.5%
same,Fold Change,PBMCs [1]; [6],2.3
same,% 7-AAD positive per cell cycle phase G0-G1,"PBMCs [2]; 15 μM, HIV +",98%
same,% 7-AAD positive per cell cycle phase G2-G1,"PBMCs [2]; 15 μM, HIV +",2%
same,% 7-AAD positive per cell cycle phase G2-M,"PBMCs [2]; 15 μM, HIV +",0.08%
same,% of cells in cell cycle phase,"PBMCs [2]; 15 μM, HIV +",2.4%
same,% 7-AAD positive per cell cycle phase G0-G1,"PBMCs [2]; 15 μM, HIV −",91%
same,% 7-AAD positive per cell cycle phase G2-G1,"PBMCs [2]; 15 μM, HIV −",2%
same,% 7-AAD positive per cell cycle phase G2-M,"PBMCs [2]; 15 μM, HIV −",8.7%
same,% of cells in cell cycle phase,"PBMCs [2]; 15 μM, HIV −",0%
same,% 7-AAD positive per cell cycle phase G0-G1,"PBMCs [2]; 30 μM, HIV +",99%
same,% 7-AAD positive per cell cycle phase G2-G1,"PBMCs [2]; 30 μM, HIV +",2%
same,% 7-AAD positive per cell cycle phase G2-M,"PBMCs [2]; 30 μM, HIV +",0.15%
same,% of cells in cell cycle phase,"PBMCs [2]; 30 μM, HIV +",0.9%
same,% 7-AAD positive per cell cycle phase G0-G1,"PBMCs [2]; 30 μM, HIV −",98%
same,% 7-AAD positive per cell cycle phase G2-G1,"PBMCs [2]; 30 μM, HIV −",2%
same,% 7-AAD positive per cell cycle phase G2-M,"PBMCs [2]; 30 μM, HIV −",0.6%
same,% of cells in cell cycle phase,"PBMCs [2]; 30 μM, HIV −",1%
